Data: patent US10681909B2, “Herbicidal triazoles” (FMC Corporation, priority 2014, dated 2020)

Legend:
velvetleaf = test: Test A preemergence; format: in vivo, Abutilon theophrasti; settings: Abutilon theophrasti, pre-emergence, 240 h, 0 to 100 scale (0 no effect, 100 complete control), read-out: Plant response rating, Velvetleaf; for pest or weed control at 125 g/ha: 125 g ai/ha; for pest or weed control at 500 g/ha: 500 g ai/ha, approx. 10 d
Outline: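 For preemergence, seeds were sown in a loam soil-sand blend and given a directed soil spray of test chemical in a non-phytotoxic solvent mixture with surfactant. For postemergence, plants in pots of the same blend were sprayed with the same formulation at the one- to two-leaf stage, 2 to 10 cm tall.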

galium = test: Test C preemergence; format: in vivo, Galium aparine; settings: for Plant response rating (scale of 0 to 100 where 0 is no effect and 100 is complete control): Galium, preemergence; for Galium plant response rating (0 to 100): Preemergence, visual rating after 13 to 15 d
Description: (§1) Seeds of plant species selected from blackgrass (Alopecurus myosuroides), ryegrass, Italian (Italian ryegrass, Lolium multiflorum), wheat (winter wheat, Triticum aestivum), galium (catchweed bedstraw, Galium aparine), corn (Zea mays), crabgrass, large (large crabgrass, Digitaria sanguinalis), foxtail, giant, (giant foxtail, Setaria faberii), johnsongrass (Sorghum halepense), lambsquarters (Chenopodium album), morningglory (Ipomoea coccinea), nutsedge, yellow (yellow nutsedge, Cyperus esculentus), pigweed (Amaranthus retroflexus), ragweed (common ragweed, Ambrosia elatior), soybean (Glycine max), barnyardgrass (Echinochloa crus-galli), oilseed rape (Brassica napus), waterhemp (common waterhemp, Amaranthus rudis), and velvetleaf (Abutilon theophrasti) were planted into a blend of loam soil and sand and treated preemergence with test chemicals formulated in a non-phytotoxic solvent mixture which included a surfactant. At the same time, plants selected from these crop and weed species and also chickweed (common chickweed, Stellaria media), oat, wild (wild oat, Avena fatua), and kochia (Kochia scoparia), were planted in pots containing Sunshine Redi-Earth® planting medium comprising spaghnum peat moss, vermiculite, starter nutrients and dolomitic limestone and treated with postemergence applications of test chemicals formulated in the same manner. Plants ranged in height from 2 to 18 cm (1- to 4-leaf stage) for postemergence treatments. […] A dash (-) response means no test result.

morningglory = test: Test C preemergence; format: in vivo, Ipomoea coccinea; settings: for Plant response rating (scale of 0 to 100 where 0 is no effect and 100 is complete control): Morningglory, preemergence; for Morningglory plant response rating (0 to 100): Preemergence, visual rating after 13 to 15 d
Description: as §1

pigweed = test: Test C preemergence; format: in vivo, Amaranthus retroflexus; settings: for Plant response rating (scale of 0 to 100 where 0 is no effect and 100 is complete control): Pigweed, preemergence; for Pigweed plant response rating (0 to 100): Preemergence, visual rating after 13 to 15 d
Description: as §1

## Cn1nc(-c2ccc(F)cc2)nc1C(O)c1ccnc(C(F)(F)F)c1 (stereo not drawn) [Compound 14, α-[3-(4-fluorophenyl)-1-methyl-1H-1,2,4-triazol-5-yl]-2-(trifluoromethyl)-4-pyridinemethanol]
velvetleaf
  pest or weed control at 125 g/ha: 0%
  pest or weed control at 500 g/ha: 0%

## CCn1nc(-c2ccc(F)cc2)nc1C(O)c1ccnc(C(F)(F)F)c1 (stereo not drawn) [Compound 15, α-[1-Ethyl-3-(4-fluorophenyl)-1H-1,2,4-triazol-5-yl]-2-(trifluoromethyl)-4-pyridinemethanol]
velvetleaf
  pest or weed control at 125 g/ha: 0%
  pest or weed control at 500 g/ha: 0%

## CCCn1nc(-c2ccc(F)cc2)nc1Cc1ccnc(C(F)(F)F)c1 [Compound 17, 4-[[3-(4-fluorophenyl)-1-propyl-1H-1,2,4-triazol-5-yl]methyl]-2-(trifluoromethyl)pyridine]
velvetleaf
  pest or weed control at 125 g/ha: 90%
  pest or weed control at 500 g/ha: 100%

## CCn1nc(-c2ccc(F)cc2)nc1C(=O)c1ccnc(C(F)(F)F)c1 [Compound 19, [1-ethyl-3-(4-fluorophenyl)-1H-1,2,4-triazol-5-yl][2-(trifluoromethyl)-4-pyridinyl]methanone]
velvetleaf
  pest or weed control at 125 g/ha: 0%
  pest or weed control at 500 g/ha: 0%

## Cn1nc(-c2ccc(F)cc2)nc1Oc1cccc(C(F)(F)F)c1 [Compound 5, 3-(4-fluorophenyl)-1-methyl-5-[3-(trifluoromethyl)phenoxy]-1H-1,2,4-triazole]
velvetleaf
  pest or weed control at 125 g/ha: 0%
  pest or weed control at 500 g/ha: 0%

## COc1nc(-c2ccccc2)nn1Cc1ccnc(C(F)(F)F)c1 [Compound 32]
galium; 125 g ai/ha
  Plant response rating (scale of 0 to 100 where 0 is no effect and 100 is complete control): 60
galium; 250 g ai/ha
  Plant response rating (scale of 0 to 100 where 0 is no effect and 100 is complete control): 80
galium; 31 g ai/ha
  Galium plant response rating (0 to 100): 0
galium; 62 g ai/ha
  Galium plant response rating (0 to 100): 0
morningglory; 125 g ai/ha
  Plant response rating (scale of 0 to 100 where 0 is no effect and 100 is complete control): 5
morningglory; 250 g ai/ha
  Plant response rating (scale of 0 to 100 where 0 is no effect and 100 is complete control): 45
morningglory; 31 g ai/ha
  Morningglory plant response rating (0 to 100): 0
morningglory; 62 g ai/ha
  Morningglory plant response rating (0 to 100): 5
pigweed; 125 g ai/ha
  Plant response rating (scale of 0 to 100 where 0 is no effect and 100 is complete control): 100
pigweed; 250 g ai/ha
  Plant response rating (scale of 0 to 100 where 0 is no effect and 100 is complete control): 100
pigweed; 31 g ai/ha
  Pigweed plant response rating (0 to 100): 100
pigweed; 62 g ai/ha
  Pigweed plant response rating (0 to 100): 100

## CS(=O)(=O)c1nc(-c2ccc(F)cc2)nn1Cc1ccnc(C(F)(F)F)c1 [Compound 29, 4-[[3-(4-fluorophenyl)-5-(methylsulfonyl)-1H-1,2,4-triazole-1-yl]methyl]-2-(trifluoromethyl)pyridine]
velvetleaf
  pest or weed control at 125 g/ha: 0%
  pest or weed control at 500 g/ha: 0%

## CCCc1nc(-c2ccc(F)cc2)nn1Cc1ccnc(C(F)(F)F)c1 [Compound 6, 4-[[3-(4-fluorophenyl)-5-propyl-1H-1,2,4-triazol-1-yl]methyl]-2-(trifluoromethyl)pyridine]
velvetleaf
  pest or weed control at 125 g/ha: 40%
  pest or weed control at 500 g/ha: 100%
galium; 125 g ai/ha
  Plant response rating (scale of 0 to 100 where 0 is no effect and 100 is complete control): 100
galium; 250 g ai/ha
  Plant response rating (scale of 0 to 100 where 0 is no effect and 100 is complete control): 100
galium; 31 g ai/ha
  Galium plant response rating (0 to 100): 90
galium; 62 g ai/ha
  Galium plant response rating (0 to 100): 98
morningglory; 125 g ai/ha
  Plant response rating (scale of 0 to 100 where 0 is no effect and 100 is complete control): 75
morningglory; 250 g ai/ha
  Plant response rating (scale of 0 to 100 where 0 is no effect and 100 is complete control): 100
morningglory; 31 g ai/ha
  Morningglory plant response rating (0 to 100): 45
morningglory; 62 g ai/ha
  Morningglory plant response rating (0 to 100): 60
pigweed; 125 g ai/ha
  Plant response rating (scale of 0 to 100 where 0 is no effect and 100 is complete control): 100
pigweed; 250 g ai/ha
  Plant response rating (scale of 0 to 100 where 0 is no effect and 100 is complete control): 100
pigweed; 31 g ai/ha
  Pigweed plant response rating (0 to 100): 100
pigweed; 62 g ai/ha
  Pigweed plant response rating (0 to 100): 100

## COc1nc(-c2ccc(F)cc2)nn1Cc1ccnc(C(F)(F)F)c1 [Compound 9, 4-[[3-(4-fluorophenyl)-5-methoxy-1H-1,2,4-triazol-1-yl]methyl]-2-(trifluoromethyl)pyridine]
velvetleaf
  pest or weed control at 125 g/ha: 0%
  pest or weed control at 500 g/ha: 80%
galium; 125 g ai/ha
  Plant response rating (scale of 0 to 100 where 0 is no effect and 100 is complete control): 90
galium; 250 g ai/ha
  Plant response rating (scale of 0 to 100 where 0 is no effect and 100 is complete control): 98
galium; 31 g ai/ha
  Galium plant response rating (0 to 100): 5
galium; 62 g ai/ha
  Galium plant response rating (0 to 100): 5
morningglory; 125 g ai/ha
  Plant response rating (scale of 0 to 100 where 0 is no effect and 100 is complete control): 45
morningglory; 250 g ai/ha
  Plant response rating (scale of 0 to 100 where 0 is no effect and 100 is complete control): 90
morningglory; 31 g ai/ha
  Morningglory plant response rating (0 to 100): 5
morningglory; 62 g ai/ha
  Morningglory plant response rating (0 to 100): 45
pigweed; 125 g ai/ha
  Plant response rating (scale of 0 to 100 where 0 is no effect and 100 is complete control): 100
pigweed; 250 g ai/ha
  Plant response rating (scale of 0 to 100 where 0 is no effect and 100 is complete control): 98
pigweed; 31 g ai/ha
  Pigweed plant response rating (0 to 100): 100
pigweed; 62 g ai/ha
  Pigweed plant response rating (0 to 100): 100
